TGI and GI50 data for ten compounds are collected here from PubChem BioAssay (NCI).

Test systems include SF-539 CNS; OVCAR-5 ovarian; SK-MEL-2 melanoma; MALME-3M melanoma; UO-31 renal; A549 NSCLC; MOLT-4 leukemia; RPMI-8226 leukemia; KM12 colon; SR leukemia.
Holding throughout (assay): growth of human tumour cells (NCI), 48 h

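Protocol summary: plate cells (96-well), add compound at 5 concentrations, incubate 48 h, interpolate endpoints linearly. Abbreviation: GI50, concentration required for 50% inhibition of growth. TGI: concentration producing complete growth inhibition.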

Regarding `N#C/C(=C1\OC(=N)C(c2ccc(Cl)cc2Cl)C1=O)c1ccc(Cl)cc1Cl` (stereo not drawn), the TGI in the test with SF-539 CNS, in the test on OVCAR-5 ovarian, with SK-MEL-2 melanoma, in the test on MALME-3M melanoma, in the test on UO-31 renal and in the test with A549 NSCLC was above 100 µM each time. In addition, the TGI in the test on MOLT-4 leukemia and with RPMI-8226 leukemia was above 100 µM each time.

As to `O=C(CO)C1CC2C=CC1C2` (stereo not drawn), the TGI in the test on SF-539 CNS, in the test with OVCAR-5 ovarian, in the test with SK-MEL-2 melanoma, in the test on MALME-3M melanoma, in the test with UO-31 renal and in the test on A549 NSCLC was above 100 µM each time. In addition, the TGI with MOLT-4 leukemia, in the test with KM12 colon and in the test with RPMI-8226 leukemia was above 100 µM each time.

For `CCN(Cc1ccc(F)cc1)c1ccc(CO)c(C(F)(F)F)c1`, the GI50 was 15.5 µM in the test with SF-539 CNS; 1.28 µM with OVCAR-5 ovarian; 15.1 µM in the test with SK-MEL-2 melanoma; 15.5 µM with MALME-3M melanoma; 12.5 µM in the test on UO-31 renal; 10.9 µM in the test with A549 NSCLC. The figures for the GI50 in the test on MOLT-4 leukemia, in the test on KM12 colon and in the test on RPMI-8226 leukemia were 15.2 µM, 15.2 µM and 11.7 µM, respectively. Further, the TGI in the test on SF-539 CNS came to 28.9 µM; in the test with OVCAR-5 ovarian it was 5 µM; with SK-MEL-2 melanoma, 32.5 µM; in the test with MALME-3M melanoma, 30.3 µM; in the test with UO-31 renal, 25 µM; in the test with A549 NSCLC it was 23.5 µM. In addition, the TGI in the test on MOLT-4 leukemia came out at 43.5 µM; with KM12 colon, 29.3 µM; with RPMI-8226 leukemia, 45.2 µM.

For the compound `CC(=O)CC(=O)CCC(=O)Nc1cccc(C(F)(F)F)c1`, the TGI in the test on SF-539 CNS, with OVCAR-5 ovarian, in the test on SK-MEL-2 melanoma, in the test on MALME-3M melanoma, in the test on UO-31 renal and in the test on A549 NSCLC was above 100 µM each time. Besides, the TGI in the test with MOLT-4 leukemia, in the test on KM12 colon and in the test with RPMI-8226 leukemia was above 100 µM in each case.

With `O=S(=O)(NCCCNc1nccc(-c2c(-c3ccc(F)cc3)nc3sccn23)n1)c1ccc(F)cc1`, the GI50 in the test with SF-539 CNS is 42.1 µM; in the test on OVCAR-5 ovarian, above 100 µM; in the test on SK-MEL-2 melanoma it was 23.2 µM; in the test with MALME-3M melanoma, 9.06 µM; in the test on UO-31 renal, 3.8 µM; in the test on A549 NSCLC, 4.87 µM. The values for the GI50 in the test with MOLT-4 leukemia and in the test on RPMI-8226 leukemia were 8.08 µM and 5.29 µM, respectively. Also, the TGI was above 100 µM in the test on SF-539 CNS; above 100 µM with OVCAR-5 ovarian; above 100 µM in the test on SK-MEL-2 melanoma; 94.4 µM with MALME-3M melanoma; above 100 µM in the test on UO-31 renal; above 100 µM in the test on A549 NSCLC. Besides, the TGI was above 100 µM in the test with MOLT-4 leukemia and 86 µM with RPMI-8226 leukemia.

In the case of `CC(C)OC(=O)C1Cc2c([nH]c3ccccc23)C(c2ccccc2)N1` (stereo not drawn), the TGI with SF-539 CNS is above 100 µM; in the test with OVCAR-5 ovarian, above 100 µM; in the test on SK-MEL-2 melanoma it was 41.2 µM; in the test with MALME-3M melanoma, 73.4 µM; in the test on UO-31 renal it was 73.9 µM; in the test on A549 NSCLC it was above 100 µM. Moreover, the TGI with MOLT-4 leukemia, with KM12 colon and in the test on RPMI-8226 leukemia was above 100 µM each time.

Take `Cc1ccc(C2=Nc3ccccc3SC(c3cccc4c3OCO4)C2)cc1` (stereo not drawn): the TGI in the test with SF-539 CNS turned out to be 40.2 µM; in the test on OVCAR-5 ovarian, 51.5 µM; with SK-MEL-2 melanoma, 44 µM; in the test on MALME-3M melanoma, 56 µM; with UO-31 renal, 27.3 µM; with A549 NSCLC, 72.4 µM. In addition, the results for the TGI in the test on MOLT-4 leukemia, with KM12 colon and in the test with RPMI-8226 leukemia were 55.7 µM, 32.5 µM and 54.2 µM, respectively.

Turning to `Cc1ccc(Cl)cc1-n1c(C)nc2c(cnn2-c2ccnc3c(C(F)(F)F)cccc23)c1=O`, the GI50 in the test on SF-539 CNS, in the test with OVCAR-5 ovarian, with SK-MEL-2 melanoma, in the test with MALME-3M melanoma, with UO-31 renal and in the test with A549 NSCLC was above 100 µM in each case. Besides, the GI50 in the test with MOLT-4 leukemia, with KM12 colon and in the test on RPMI-8226 leukemia was above 100 µM each time. Further, the TGI in the test with SF-539 CNS, with OVCAR-5 ovarian, with SK-MEL-2 melanoma, in the test on MALME-3M melanoma, with UO-31 renal and in the test on A549 NSCLC was above 100 µM throughout. The TGI with MOLT-4 leukemia, with KM12 colon and with RPMI-8226 leukemia was above 100 µM throughout.

For `N#CC1C(N)=NNC12Nc1ccccc1S2` (stereo not drawn), the GI50 in the test with OVCAR-5 ovarian was 31.5 µM; in the test with SK-MEL-2 melanoma it was 6.28 µM; with SR leukemia, 8.81 µM; in the test on UO-31 renal, 33.1 µM; in the test with A549 NSCLC it was 9.61 µM; in the test with KM12 colon it was 18.9 µM. Moreover, the GI50 with RPMI-8226 leukemia is 26.3 µM. Also, the TGI was 76.5 µM in the test on OVCAR-5 ovarian; 43.9 µM in the test with SK-MEL-2 melanoma; 29.9 µM in the test with SR leukemia; above 100 µM with UO-31 renal; 31.5 µM with A549 NSCLC; 91.6 µM with KM12 colon. This compound also had a TGI in the test with RPMI-8226 leukemia above 100 µM.

For the compound `Fc1ccc2nc(-c3nc(-c4ccccc4)n4ccccc34)[nH]c2c1`, the GI50 with SF-539 CNS was 2.32 µM; in the test with OVCAR-5 ovarian, 3.07 µM; in the test with SK-MEL-2 melanoma, 2.85 µM; in the test on SR leukemia it was 4.45 µM; in the test with MALME-3M melanoma, 2.06 µM; in the test on UO-31 renal, 1.75 µM. Besides, the figures for the GI50 in the test with A549 NSCLC, with MOLT-4 leukemia and with KM12 colon were 2.68 µM, 3.6 µM and 3.31 µM, respectively. For the same compound, the TGI was 6.85 µM with SF-539 CNS; 9.04 µM in the test with OVCAR-5 ovarian; 7.83 µM with SK-MEL-2 melanoma; above 100 µM in the test on SR leukemia; 4.33 µM in the test on MALME-3M melanoma; 5.15 µM with UO-31 renal. Moreover, the TGI is 7.98 µM in the test with A549 NSCLC, above 100 µM with MOLT-4 leukemia and 10.2 µM with KM12 colon.
